# Experimental data from patent publication US11230535B2, “CFTR regulators and methods of use thereof” (THE REGENTS OF THE UNIVERSITY OF CALIFORNIA, priority 2015, dated 2022).
# “Also recorded” adds a separate entry of the source.
# Tested on: mice
# Assay: Tear secretion / tear volume in mice (phenol red thread)
# Format: in vivo, mouse
# Details: mouse, in vivo
# Protocol: (§1) To measure unstimulated tear production, phenol red threads (Zone-Quick, Oasis Medical, Glendora, Calif., USA) were placed for 10 s in the lateral canthi of isofluorane-anesthetized mice using jewelers' forceps. Tear volume was measured as the length of thread wetting, as visualized under a dissecting microscope. Serial measurements were used to evaluate compound pharmacodynamics after application of 2-μL drops of compound formulations (50-100 μM compound in PBS containing 0.5% polysorbate and 0.5% DMSO) comparing to vehicle.
# as §1, with “Tear secretion. To” for “To”, “2-[…]L” for “2-μL”
# Tear volume. Tear volume was measured using phenol red threads (Zone-Quick, Oasis Medical, Glendora, Calif.) as described. Threads were placed for 10 s in the lateral canthi of isofluorane-anesthetized mice using jewelers' forceps. Tear volume was determined from the length of thread wetting as visualized under a dissecting microscope. Serial measurements were done to evaluate compound pharmacodynamics after topical application of a single, 2.5-μL drop of ophthalmic formulation containing 0-100 μM of 1 or 12 in Ringer's solution with 0.3% carboxymethylcellulose (high viscosity, VWR, Radnor, Pa.), 0.015% benzalkonium chloride preservative, and 1% DMSO. Both eyes in each mouse received the same treatment to control for potential contralateral effects of a given treatment.
Compound,basal tear secretion at 30 min,effect on tear secretion after 2 hours
cholera toxin,substantially increased,undetectable

# Same assay, conditions: single topical dose, 30 min
row,Compound,basal tear secretion at 30 min
1,"CC(C)Cn1c(=O)n(C)c(=O)c2[nH]cnc21 [IBMX, 3-isobutyl-1-methylxanthine, reference compound]",substantially increased

# Same assay, conditions: single topical dose, after 2 hours
row,Compound,effect on tear secretion after 2 hours
1,"CC(C)Cn1c(=O)n(C)c(=O)c2[nH]cnc21 [IBMX, 3-isobutyl-1-methylxanthine, reference compound]",undetectable

# Tested on: rat liver microsomes
# Assay: In vitro metabolic stability in rat liver microsomes
# Format: in vitro ADME
# Details: 5 μM, rat hepatic microsomes, NADPH
# Protocol: In vitro metabolic stability. Compounds (each 5 μM) were incubated for specified times at 37° C. with rat liver microsomes (1 mg/ml; Sigma-Aldrich) in potassium phosphate buffer containing 1 mM NADPH, as described^14.
row,Compound,original compound remaining at 60 min
1,"CCN(CC)c1nc(Nc2ccc3ncoc3c2)nc(OC(C(F)(F)F)C(F)(F)F)n1 [6j, N′-(1,3-Benzoxazol-6-yl)-N,N-diethyl-6-[(1,1,1,3,3,3-hexafluoropropan-2-yl)oxy]-1,3,5-triazine-2,4-diamine]",~60%

# Same assay, conditions: NADPH
row,Compound,"metabolic stability in hepatic microsomes, in words"
1,"CCN(CC)c1nc(Nc2ccc3ncoc3c2)nc(OC(C(F)(F)F)C(F)(F)F)n1 [6j, N′-(1,3-Benzoxazol-6-yl)-N,N-diethyl-6-[(1,1,1,3,3,3-hexafluoropropan-2-yl)oxy]-1,3,5-triazine-2,4-diamine]",metabolized slowly; also recorded: substantially greater in vitro metabolic stability than 1 or 12

# Tested on: loperamide-treated mice
# Assay: Loperamide-induced mouse model of constipation (3-h stool weight, pellet number, water content)
# Details: wildtype loperamide-treated mice
row,Compound,effect of inactive analog on stool parameters
1,"Cn1c(=O)c(-c2cc([N+](=O)[O-])ccc2N)nc2ccccc21 [inactive chemical analog of CFTRact-J027, reference compound]",nor was an inactive chemical analog of CFTRact-J027 effective

# Target: human wild-type CFTR (Homo sapiens, UniProt P13569)
# Sequence (P13569 whole entry): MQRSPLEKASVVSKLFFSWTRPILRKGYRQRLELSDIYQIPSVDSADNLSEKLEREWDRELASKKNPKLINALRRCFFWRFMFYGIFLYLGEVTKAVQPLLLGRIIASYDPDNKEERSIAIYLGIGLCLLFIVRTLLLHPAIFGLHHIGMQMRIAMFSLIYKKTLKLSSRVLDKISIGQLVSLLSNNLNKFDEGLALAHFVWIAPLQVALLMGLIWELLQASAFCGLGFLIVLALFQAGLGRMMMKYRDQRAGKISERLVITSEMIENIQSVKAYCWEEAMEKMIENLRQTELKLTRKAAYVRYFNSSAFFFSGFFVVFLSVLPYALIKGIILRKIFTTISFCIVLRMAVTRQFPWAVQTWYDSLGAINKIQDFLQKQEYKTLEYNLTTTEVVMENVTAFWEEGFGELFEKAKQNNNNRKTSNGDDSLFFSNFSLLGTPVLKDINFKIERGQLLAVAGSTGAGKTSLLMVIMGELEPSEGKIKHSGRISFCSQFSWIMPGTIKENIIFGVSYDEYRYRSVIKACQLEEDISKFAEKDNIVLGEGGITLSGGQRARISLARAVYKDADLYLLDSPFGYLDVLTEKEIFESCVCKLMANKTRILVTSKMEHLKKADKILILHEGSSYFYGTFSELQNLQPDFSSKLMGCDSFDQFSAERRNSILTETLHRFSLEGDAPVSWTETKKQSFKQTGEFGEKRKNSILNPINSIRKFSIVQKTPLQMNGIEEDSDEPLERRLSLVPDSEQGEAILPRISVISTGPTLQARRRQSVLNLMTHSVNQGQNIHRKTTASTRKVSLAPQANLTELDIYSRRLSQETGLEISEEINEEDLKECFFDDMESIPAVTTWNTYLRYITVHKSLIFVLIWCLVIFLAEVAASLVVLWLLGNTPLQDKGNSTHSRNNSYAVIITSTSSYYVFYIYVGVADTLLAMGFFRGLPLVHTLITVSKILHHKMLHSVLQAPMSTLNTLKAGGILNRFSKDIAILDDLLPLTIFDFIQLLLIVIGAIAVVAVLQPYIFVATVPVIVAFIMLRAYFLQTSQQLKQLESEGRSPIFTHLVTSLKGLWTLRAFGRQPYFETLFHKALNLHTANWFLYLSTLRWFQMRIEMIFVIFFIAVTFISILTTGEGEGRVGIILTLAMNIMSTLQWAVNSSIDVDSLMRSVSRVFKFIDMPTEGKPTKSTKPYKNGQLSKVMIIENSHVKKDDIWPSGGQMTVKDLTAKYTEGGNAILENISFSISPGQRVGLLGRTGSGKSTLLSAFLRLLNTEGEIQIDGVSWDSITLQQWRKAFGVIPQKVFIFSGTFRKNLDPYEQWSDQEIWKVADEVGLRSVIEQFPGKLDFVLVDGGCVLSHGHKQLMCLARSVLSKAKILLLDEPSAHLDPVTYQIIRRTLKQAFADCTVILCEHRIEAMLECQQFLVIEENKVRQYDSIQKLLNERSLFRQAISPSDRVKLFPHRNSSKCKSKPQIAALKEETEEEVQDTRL
# Assay: Cell-based plate reader (YFP iodide influx) assay of CFTR function
# Parameters: expressed in transfected cells; host or cells: Fischer rat thyroid (FRT) cells stably co-expressing YFP-H148Q
# Details: N-methyl-N′-phenyl-1,3,5-triazine diamine analogs; read-out: EC50
# Protocol: The initiate rate of I^− influx was computed by determined using exponential regression. All compound plates contained negative controls (DMSO vehicle) and positive controls (20 μM forskolin).
# High-throughput screening. […] The initiate rate of I^− influx was computed by determined using exponential regression. All compound plates contained negative controls (DMSO vehicle) and positive controls ([…] forskolin).
# Platereader assays of chloride channel function. CFTR activity was assayed as described. […] I^− influx was measured in a plate reader with initial baseline read for 2 s and then for 12 s after rapid addition of an I^−-containing solution. TMEM16A activity was assayed similarly as described using FRT cells co-expressing YFP and TMEM16A. Activity of non-TMEM16A CaCC was assayed as described in HT-29 cells expressing YFP. In each assay initial rates of I^− influx were computed as a linear measure of channel function.
row,Compound,EC50
1,CNc1nc(Nc2ccccc2)nc(OC(C(F)(F)F)C(F)(F)F)n1 [compound 11],120 nM

# Same assay, conditions: bicyclic aniline analogs; read-out: EC50
row,Compound,EC50
1,"CCN(CC)c1nc(Nc2ccc3ncoc3c2)nc(OC(C(F)(F)F)C(F)(F)F)n1 [6j, N′-(1,3-Benzoxazol-6-yl)-N,N-diethyl-6-[(1,1,1,3,3,3-hexafluoropropan-2-yl)oxy]-1,3,5-triazine-2,4-diamine]",150 nM

# Same assay, conditions: commercial analogs; FRT cells with YFP and wildtype CFTR, 125 nM forskolin
row,Compound,% Activation
1,C=CCNc1nc(Nc2ccc(I)cc2)nc(OCC)n1 [K044],55%
2,CCOc1nc(NCCN2CCOCC2)nc(Nc2ccc(I)cc2)n1 [K045],15%
3,CCOc1nc(Nc2ccc(I)cc2)nc(NC2CCCCC2)n1 [K046],16%
4,COc1nc(NCCO)nc(Nc2ccc([N+](=O)[O-])cc2)n1 [K047],17%
5,C=CCNc1nc(Nc2ccc([N+](=O)[O-])cc2)nc(OC)n1 [K048],46%
6,CCOc1nc(NCCO)nc(Nc2ccc([N+](=O)[O-])cc2)n1 [K049],28%
7,C=CCNc1nc(Nc2ccc([N+](=O)[O-])cc2)nc(OCC)n1 [K050],66%
8,CCOc1nc(Nc2ccc([N+](=O)[O-])cc2)nc(NC2CCCCC2)n1 [K051],45%
9,C=CCNc1nc(Nc2ccc(I)cc2C)nc(OCC)n1 [K053],24%
10,CCOc1nc(Nc2ccc(I)cc2C)nc(NC2CCCCC2)n1 [K054],14%
11,CN(C)c1nc(OC(C(F)(F)F)C(F)(F)F)nc(N(c2ccccc2)c2ccccc2)n1 [K055],42%
12,CCC(C)Nc1nc(Nc2ccc([N+](=O)[O-])cc2)nc(OC(C(F)(F)F)C(F)(F)F)n1 (stereo not shown) [K056],38%
13,FC(F)(F)COc1nc(N2CCCCC2)nc(N(c2ccccc2)c2ccccc2)n1 [K057],28%
14,C=CCNc1nc(OC(C(F)(F)F)C(F)(F)F)nc(N(c2ccccc2)c2ccccc2)n1 [K058],37%
15,C=CCNc1nc(Nc2cccc([N+](=O)[O-])c2)nc(OC(C(F)(F)F)C(F)(F)F)n1 [K059],90%
16,COc1ccc(Nc2nc(NC3CCCCC3)nc(OC(C(F)(F)F)C(F)(F)F)n2)cc1 [K060],38%
17,Cc1ccc(Nc2nc(OC(C(F)(F)F)C(F)(F)F)nc(N3CCCCC3)n2)cc1 [K061],31%
18,Fc1ccc(Nc2nc(OC(C(F)(F)F)C(F)(F)F)nc(N3CCCCC3)n2)cc1 [K062],49%
19,FC(F)(F)C(Oc1nc(N2CCCCCC2)nc(N(c2ccccc2)c2ccccc2)n1)C(F)(F)F [K063],41%
20,CC(=O)N1CCN(c2nc(Nc3ccccc3C(=O)c3ccccc3)nc(OC(C(F)(F)F)C(F)(F)F)n2)CC1 [K064],40%
21,FC(F)(F)C(Oc1nc(Nc2ccc(Cl)cc2)nc(N2CCOCC2)n1)C(F)(F)F [K065],38%
22,CCOc1nc(Nc2ccc(-c3nc4ccccc4o3)cc2)nc(N2CCOCC2)n1 [K066],87%
23,C=CCNc1nc(Nc2ccc(-c3nc4ccccc4o3)cc2)nc(OCC)n1 [K067],49%

row,Compound,% Activation
1,CCOc1nc(NCCO)nc(Nc2ccc(-c3nc4ccccc4o3)cc2)n1 [K068],84%
2,FC(F)(F)COc1nc(Nc2ccc(OC(F)(F)Cl)cc2)nc(N2CCOCC2)n1 [K069],37%
3,FC(F)(F)COc1nc(Nc2ccc(OC(F)(F)Cl)cc2)nc(N2CCCCC2)n1 [K070],28%
4,CN1CCN(c2nc(Nc3ccc(OC(F)(F)Cl)cc3)nc(OCC(F)(F)F)n2)CC1 [K071],25%
5,FC(F)(F)COc1nc(Nc2ccc(OC(F)(F)F)cc2)nc(N2CCOCC2)n1 [K072],31%
6,FC(F)(F)COc1nc(Nc2ccc(OC(F)(F)F)cc2)nc(N2CCCCC2)n1 [K073],19%
7,CN1CCN(c2nc(Nc3ccc(OC(F)(F)F)cc3)nc(OCC(F)(F)F)n2)CC1 [K074],25%
8,CN(C)c1nc(Nc2ccc(OC(F)(F)Cl)cc2)nc(OCC(F)(F)F)n1 [K075],32%
9,C=CCNc1nc(Nc2ccc(OC(F)(F)Cl)cc2)nc(OCC(F)(F)F)n1 [K076],46%
10,C=CCNc1nc(Nc2ccc(OC(F)(F)Cl)cc2)nc(OCC(F)(F)F)n1 [K077],29%
11,OCCNc1nc(Nc2ccc(OC(F)(F)Cl)cc2)nc(OCC(F)(F)F)n1 [K078],28%
12,FC(F)(F)COc1nc(Nc2ccc(OC(F)(F)F)cc2)nc(NC2CC2)n1 [K079],40%
13,FC(F)(F)COc1nc(NCc2ccccc2)nc(Nc2ccc(OC(F)(F)Cl)cc2)n1 [K080],26%
14,FC(F)(F)COc1nc(Nc2ccc(OC(F)(F)Cl)cc2)nc(N2CCN(c3cccc(Cl)c3)CC2)n1 [K081],24%
15,FC(F)(F)COc1nc(NCc2ccccc2)nc(Nc2ccc(OC(F)(F)F)cc2)n1 [K082],28%
16,FC(F)(F)COc1nc(Nc2ccc(OC(F)(F)Cl)cc2)nc(NC2CC2)n1 [K083],54%
17,CCC(C)Nc1nc(Nc2ccc(OC(F)(F)Cl)cc2)nc(OCC(F)(F)F)n1 (stereo not shown) [K084],22%
18,CCCCNc1nc(Nc2ccc(OC(F)(F)Cl)cc2)nc(OCC(F)(F)F)n1 [K085],25%
19,CCC(C)Nc1nc(Nc2ccc(OC(F)(F)F)cc2)nc(OCC(F)(F)F)n1 (stereo not shown) [K086],20%
20,CN(C)c1nc(Nc2ccc(Cl)cc2)nc(OCCNC(=O)c2ccc(Cl)cc2)n1 [K087],47%
21,CCCCCCNc1nc(Nc2ccc([N+](=O)[O-])cc2)nc(OCC)n1 [K088],33%
22,CCOc1nc(NCCN2CCOCC2)nc(Nc2ccc([N+](=O)[O-])cc2)n1 [K090],52%
23,Cc1cc(I)ccc1Nc1nc(NCCN2CCOCC2)nc(OCC(F)(F)F)n1 [K091],43%

# Same assay, conditions: commercial analogs; read-out: EC50 (full-dose response assay, compounds >80% activation)
row,Compound,EC50
1,C=CCNc1nc(Nc2cccc([N+](=O)[O-])c2)nc(OC(C(F)(F)F)C(F)(F)F)n1 [K059],750 nM
2,CCOc1nc(Nc2ccc(-c3nc4ccccc4o3)cc2)nc(N2CCOCC2)n1 [K066],2900 nM
3,CCOc1nc(NCCO)nc(Nc2ccc(-c3nc4ccccc4o3)cc2)n1 [K068],4100 nM
